Molecules are shown by their SMILES. The source made the active and inactive calls. No stated cut-off is given here; in the data, actives have a measured IC50 and inactives only a lower limit.

In the assay the target is Envelope glycoprotein gp160 (Human immunodeficiency virus 1, UniProt Q6QLK5). Nature of the assay: inhibitors of HIV fusion peptide binding, primary screen, biochemical, uHTS, fluorescence dequenching (AID 1986).
Sequence of Envelope glycoprotein gp160 (Q6QLK5 whole entry, the tested form may be a part): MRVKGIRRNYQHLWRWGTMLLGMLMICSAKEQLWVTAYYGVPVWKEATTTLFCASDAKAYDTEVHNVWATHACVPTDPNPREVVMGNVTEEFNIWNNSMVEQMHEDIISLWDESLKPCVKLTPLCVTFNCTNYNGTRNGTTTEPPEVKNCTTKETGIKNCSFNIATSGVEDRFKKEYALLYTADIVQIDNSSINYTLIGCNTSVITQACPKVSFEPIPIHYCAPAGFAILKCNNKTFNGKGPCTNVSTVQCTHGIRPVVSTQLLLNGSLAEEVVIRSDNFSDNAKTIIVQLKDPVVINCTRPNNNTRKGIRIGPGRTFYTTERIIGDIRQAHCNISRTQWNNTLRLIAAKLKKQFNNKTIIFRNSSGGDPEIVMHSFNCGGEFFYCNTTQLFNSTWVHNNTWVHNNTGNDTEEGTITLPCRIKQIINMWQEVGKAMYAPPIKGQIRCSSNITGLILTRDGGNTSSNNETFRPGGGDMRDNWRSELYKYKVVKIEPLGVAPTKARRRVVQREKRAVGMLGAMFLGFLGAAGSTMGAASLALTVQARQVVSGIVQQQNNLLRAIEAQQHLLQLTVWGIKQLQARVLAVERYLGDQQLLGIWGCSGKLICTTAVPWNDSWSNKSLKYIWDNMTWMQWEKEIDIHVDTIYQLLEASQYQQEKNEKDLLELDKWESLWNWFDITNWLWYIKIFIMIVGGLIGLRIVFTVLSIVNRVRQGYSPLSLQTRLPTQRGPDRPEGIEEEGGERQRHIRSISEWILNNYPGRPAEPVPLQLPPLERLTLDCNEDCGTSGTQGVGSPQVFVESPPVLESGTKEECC
As a reminder, the IC50 is the concentration at which inhibition is half-maximal. In the case of `Cc1ccc(S(=O)(=O)Oc2ccc(/C=C3/C(=N)N4C(=NC3=O)SN=C4S(C)(=O)=O)cc2)cc1`, the IC50 was 16.9 µM (active).
In the case of `O=C(O)c1ccccc1NC(=O)c1ccccc1Nc1ccccc1`, the IC50 is 17.5 µM (active).
Regarding `O=C(O)CCCCCN1C(=O)/C(=C\c2cn(-c3ccccc3)nc2-c2cccs2)SC1=S`, the IC50 was 9.84 µM (active).
Take `CCOC(=O)C1=C(C)N=c2s/c(=C\c3ccc(OCC(=O)O)cc3)c(=O)n2C1c1ccc(OC(C)C)cc1` (centres undefined): the IC50 is 16.3 µM (active).

Values taken from ChEMBL document CHEMBL1201862, “PubChem BioAssay data set” (2004).
